# Results from patent US12133838B2, “Homotaurine-enriched compositions and methods of use for animal health” (FB Maria srl, priority 2015, dated 2024).
# Legend:
# [1] = tested on: young adult dogs; assay: cognitive learning test in a maze, young adult dogs; assay type: in vivo, dog; conditions: young dogs (under 6 years of age), homotaurine 1 g/subject PO SID
# Source text: (§1) The experiment began by selecting two groups of elderly dogs (age more than 10 years, 16 subjects per group) and two groups of young adult dogs (between 3 and 6 years of age, 6 subjects per group), who were divided randomly balancing them per age, seniority, and size. The dogs underwent a cognitive learning tests (Spatial reversal learning is impaired by aging in pet dogs, P. Mongillo et al., Age, 2013, 35 (6): 2273-2282), in a simple maze built to this trial. Passing the test consisted in the dog's ability to learn to get out of the labyrinth in the direction that he himself had chosen in the first successful attempt. The number of attempts has been the test score: the lower the number of attempts, better cognitive performance. Immediately after the test, two groups of dogs (one old and one young) started to receive food integration of homotaurine capsules. Homotaurine at was administered orally once daily (PO SID) at a dose of 1 g/subject. After 4 months of homotaurine supplementation, initial learning test was repeated, with the same modalities of the initial test.
# [2] = tested on: elderly dogs; assay: cognitive learning test in a maze, elderly dogs; assay type: in vivo, dog; conditions: for Average number of wrong tries of the aged dogs able to pass the learning test (average score) / Percentage of the aged dogs able to pass the learning test: dogs more than 10 years
# Source text: as §1, with “After 15 days the dogs underwent a memory test (learning result application of first test) and, if they have passed the test, to a subsequent reverse learning test, which consisted in learning to exit the labyrinth from the opposite direction to that previously learned within a defined number of trials. After” for “After”, “test. The first evaluable results regarding the comparison between the cognitive learning tests, carried out on two groups of dogs over 10 years of age, a period in which aging-correlated brain behavior changes can be observed.” for “test.”
# [3] = 1° test, before start of homotaurine
# [4] = 2° test, after 4 months of homotaurine 1 g/subject PO SID
smiles,measurement,setting,value
"NCCCS(=O)(=O)O [homotaurine, 3-amino-1-propanesulfonic acid]",change of average score,[1],−2.6
same,Average number of wrong tries of the aged dogs able to pass the learning test (average score),[2]; [3],6.67
same,Percentage of the aged dogs able to pass the learning test,[2]; [3],75%
same,Average number of wrong tries of the aged dogs able to pass the learning test (average score),[2]; [4],5.67
same,Percentage of the aged dogs able to pass the learning test,[2]; [4],75%
same,"change of average score, second versus first test","[2]; aged dogs, about four months of homotaurine 1 g/subject PO SID",−1.0
same,failures in the learning test,"[2]; first test, before start of homotaurine, aged dogs",25%
same,failures in the learning test,"[2]; second test, about four months later, 1 g/subject PO SID, aged dogs",25%
